Laboratory results as given in US8613927B2, “High affinity human antibodies to human nerve growth factor” (Regeneron Pharmaceuticals, Inc., priority 2007, dated 2013).

System: C57BL/6 male mice
Test: Seltzer model of neuropathic pain, Hargreaves' test
Type: in vivo, mouse
Excerpt: Neuropathic pain. The mouse Seltzer model of neuropathic pain (Malmberg et al. (1998) Pain 76:215-222) was used with C57BL/6 male mice, in which a partial nerve injury was produced by tying a tight ligature with a 7-0 silk suture around approximately ⅓ to ½ the diameter of the sciatic nerve of one single thigh per mouse. Post-surgery, the mice were allowed to recover for at least two days and then they were studied for several weeks post-surgery for thermal hyperalgesia in the Hargreaves' test. Controls were sham-operated mice in which the sciatic nerve was exposed and elevated but not tied. Following surgery, the mice were tested at day […] and at day 7 post-surgery to confirm that the thermal hyperalgesia had developed.
Following the Seltzer surgery, mice were tested at days 5 and 7 post-surgery to confirm that the thermal hyperalgesia had developed.

IgG1 Control: negative binding control, IgG1 control (AVASTIN®; Genentech, CA)
mean percent change from Hargreaves baseline (Table 24, injected Day 7, Day 28): −54.1 ± 3.5%
mean percent change from Hargreaves baseline (Table 24, injected Day 7, Day 32): −41.9 ± 8.3%
mean percent change from Hargreaves baseline (Table 24, injected Day 7, Day 35): −43.9 ± 6.8%
mean percent change from Hargreaves baseline (Table 24, injected Day 7, Day 42): −35.0 ± 6.6%
mean percent change from Hargreaves baseline (Table 24, injected Day 14, Day 5 after surgery): −60.0 ± 4.8%
mean percent change from Hargreaves baseline (Table 24, injected Day 14, Day 7): −54.4 ± 6.4%
mean percent change from Hargreaves baseline (Table 24, injected Day 14, Day 8): −55.3 ± 6.1%
mean percent change from Hargreaves baseline (Table 24, injected Day 14, Day 10): −52.8 ± 7.2%
mean percent change from Hargreaves baseline (Table 24, injected Day 14, Day 14): −62.1 ± 5.7%
mean percent change from Hargreaves baseline (Table 24, injected Day 14, Day 15): −63.0 ± 5.8%
mean percent change from Hargreaves baseline (Table 24, injected Day 14, Day 17): −58.6 ± 5.7%
mean percent change from Hargreaves baseline (Table 24, injected Day 14, Day 21): −57.1 ± 4.4%
mean percent change from Hargreaves baseline (Table 24, injected Day 14, Day 24): −49.5 ± 6.6%
mean percent change from Hargreaves baseline (Table 24, injected Day 14, Day 28): −53.6 ± 5.4%
mean percent change from Hargreaves baseline (Table 24, injected Day 14, Day 32): −40.9 ± 13.1%
mean percent change from Hargreaves baseline (Table 24, injected Day 14, Day 35): −42.9 ± 10.3%
mean percent change from Hargreaves baseline (Table 24, injected Day 14, Day 39): −39.0 ± 11.4%
mean percent change from Hargreaves baseline (Table 24, injected Day 14, Day 42): −38.1 ± 12.5%
mean percent change from Hargreaves baseline (Table 24, injected Day 21, Day 5 after surgery): −55.5 ± 5.0%
mean percent change from Hargreaves baseline (Table 24, injected Day 21, Day 7): −47.2 ± 4.8%
mean percent change from Hargreaves baseline (Table 24, injected Day 21, Day 8): −47.9 ± 4.7%
mean percent change from Hargreaves baseline (Table 24, injected Day 21, Day 10): −55.0 ± 6.7%
mean percent change from Hargreaves baseline (Table 24, injected Day 21, Day 14): −63.8 ± 4.6%
mean percent change from Hargreaves baseline (Table 24, injected Day 21, Day 15): −54.5 ± 5.0%
mean percent change from Hargreaves baseline (Table 24, injected Day 21, Day 17): −52.4 ± 5.3%
mean percent change from Hargreaves baseline (Table 24, injected Day 21, Day 21): −55.8 ± 3.6%
mean percent change from Hargreaves baseline (Table 24, injected Day 21, Day 22): −50.6 ± 5.3%
mean percent change from Hargreaves baseline (Table 24, injected Day 21, Day 24): −44.7 ± 5.7%
mean percent change from Hargreaves baseline (Table 24, injected Day 21, Day 28): −46.0 ± 7.6%
mean percent change from Hargreaves baseline (Table 24, injected Day 21, Day 32): −32.8 ± 4.8%
mean percent change from Hargreaves baseline (Table 24, injected Day 21, Day 35): −39.8 ± 4.5%
mean percent change from Hargreaves baseline (Table 24, injected Day 21, Day 39): −34.6 ± 10.0%
mean percent change from Hargreaves baseline (Table 24, injected Day 21, Day 42): −33.9 ± 9.9%
mean percent change from Hargreaves baseline (Table 25, 50 mg/kg s.c. at day 7, day 5 after surgery): −51.2 ± 5.2%
mean percent change from Hargreaves baseline (Table 25, 50 mg/kg s.c. at day 7, day 7): −47.6 ± 3.9%
mean percent change from Hargreaves baseline (Table 25, 50 mg/kg s.c. at day 7, day 9): −36.7 ± 14.6%
mean percent change from Hargreaves baseline (Table 25, 50 mg/kg s.c. at day 7, day 12): −47.2 ± 5.5%
mean percent change from Hargreaves baseline (Table 25, 50 mg/kg s.c. at day 7, day 15): −46.7 ± 8.5%
mean percent change from Hargreaves baseline (Table 25, 50 mg/kg s.c. at day 7, day 19): −28.6 ± 7.5%
mean percent change from Hargreaves baseline (Table 25, 50 mg/kg s.c. at day 7, day 22): −34.9 ± 7.9%
mean percent change from Hargreaves baseline (Table 25, 50 mg/kg s.c. at day 7 post-surgery, Baseline): 0.0 ± 0.0%
mean percent change from Hargreaves baseline (Table 26, 50 mg/kg i.p. at day 7, day 5 after surgery): −55.5 ± 3.8%
mean percent change from Hargreaves baseline (Table 26, 50 mg/kg i.p. at day 7, day 7): −61.6 ± 1.8%
mean percent change from Hargreaves baseline (Table 26, 50 mg/kg i.p. at day 7, day 8): −59.3 ± 4.0%
mean percent change from Hargreaves baseline (Table 26, 50 mg/kg i.p. at day 7, day 9): −51.0 ± 4.2%
mean percent change from Hargreaves baseline (Table 26, 50 mg/kg i.p. at day 7, day 12): −46.5 ± 6.3%
mean percent change from Hargreaves baseline (Table 26, 50 mg/kg i.p. at day 7, day 15): −43.3 ± 6.6%
mean percent change from Hargreaves baseline (Table 26, 50 mg/kg i.p. at day 7 post-surgery, Baseline): 0.0 ± 0.0%
